The values below are quoted from earlier work in patent US5354868A, “Process for the preparation of (+)-hydantocidin and analogs thereof” (American Cyanamid Company, priority 1993, dated 1994).

For series [1], the system named is annual and perennial weeds. Conditions: compared with glyphosphate and bialaphos.
A further series deals with mammals. Conditions: in vivo.

Each structure is given as a SMILES string.

For `O=C1NC(=O)[C@@]2(N1)O[C@H](CO)[C@@H](O)[C@H]2O` [(+)-Hydantocidin, D-ribose-1-spiro-5'-N^1' -β-hydantoin], the herbicidal activity entry in series [1] is “herbicidal activity at levels comparable to commercial standards such as glyphosphate and bialaphos”. Besides, in the series with mammals, the toxicity to mammals entry is listed as “non-toxic to mammals”.
